Test results: ChEMBL document CHEMBL3396985, “Nanomolar inhibitors of Mycobacterium tuberculosis glutamine synthetase 1: synthesis, biological evaluation and X-ray crystallographic studies” (Bioorg Med Chem Lett, 2015)
Values after ≈ are worked out from the molar mass of the structure shown. Active and inactive are the calls of the source. No cut-off for these calls is given here.

Key:
[1] = Inhibition of Mycobacterium tuberculosis glutamine synthetase 1 assessed as reduction in ADP formation incubated 1 hr in presence of glutamate, ammonium chloride and ATP
[2] = tested on: Mycobacterium tuberculosis; experiment: Antimycobacterial activity against Mycobacterium tuberculosis assessed as inhibition of microbial proliferation after 6 days by cell titer blue reagent based assay; format: functional; details: 144 h
[3] = tested on: HepG2; experiment: Cytotoxicity against human HepG2 cells after 40 hrs by celltiter Glo assay; format: cell-based; details: HepG2, 40 h
[4] = Lipophilicity, log D of the compound; format: physicochemical; details: octanol/water
[5] = tested on: Mycobacterium tuberculosis; experiment: ATP competitive inhibition of Mycobacterium tuberculosis glutamine synthetase 1 assessed as reduction in ADP formation incubated 1 hr in presence of glutamate, ammonium chloride and ATP
[6] = tested on: Mycobacterium tuberculosis; experiment: microbe, parasite or virus in culture; details: H37Rv ATCC 25618
Description: Antimycobacterial activity against Mycobacterium tuberculosis H37Rv ATCC 25618 assessed as inhibition of microbial proliferation

Row | SMILES | IC50 [1] [µM] | IC80 [2] [µM] | MIC [2] [µM] | IC50 [3] [µM] | logD [4] | inhibition [5] | MIC [6] [µM]
1 | C=CCCn1c2c(n3ccnc3c1=O)Cc1c(-c3cccnc3)cccc1-2 | 0.007 | > 30 | > 30 | > 30 | – | – | –
2 | O=c1[nH]c2c(n3ccnc13)Cc1c(-c3cccc(Cl)c3)cccc1-2 | 0.61 | 22 | 22 | 15 | 2.38 | – | –
3 | O=c1c2nccn2c2c(n1Cc1ccccc1)-c1cccc(-c3ccccc3)c1C2 | 0.663 | 29 | 29 | 20 | 3.33 | – | –
4 | Cn1c2c(n3ccnc3c1=O)Cc1c(-c3ccccc3)cccc1-2 | 0.17 | > 30 | > 30 | > 30 | 2.25 | – | –
5 | CN(C)CCCn1c2c(n3ccnc3c1=O)Cc1c(-c3cccnc3)cccc1-2 | 0.131 | > 30 | > 30 | > 30 | – | – | –
6 | C=CCn1c2c(n3ccnc3c1=O)Cc1c(-c3ccccc3)cccc1-2 | 0.333 | > 30 | > 30 | > 30 | 2.7 | – | –
7 | O=c1[nH]c2c(n3ccnc13)Cc1c-2cccc1-c1cccc2ncccc12 | 7 | > 30 | > 30 | > 30 | 1.02 | – | –
8 | CC(=O)Nc1cccc2c1Cc1c-2[nH]c(=O)c2nccn12 | 2.1 | > 30 | > 30 | > 30 | – | – | –
9 | O=c1[nH]c2c(n3ccnc13)Cc1c(-c3ccccc3)cccc1-2 | 0.031 | > 30 | > 30 | > 30 | 3.52 | Active | –
10 | COCCn1c2c(n3ccnc3c1=O)Cc1c(-c3ccccc3)cccc1-2 | 0.219 | > 30 | > 30 | 23 | – | – | –
11 | COc1cccc(-c2cccc3c2Cc2c-3[nH]c(=O)c3nccn23)c1 | 0.051 | > 30 | > 30 | > 30 | 1.87 | – | –
12 | O=c1c2nccn2c2c(n1C1CC1)-c1cccc(-c3ccccn3)c1C2 | 0.456 | > 30 | > 30 | > 30 | – | – | –
13 | O=c1[nH]c2c(n3ccnc13)Cc1c(-c3cccnc3)cccc1-2 | 0.031 | 29 | 29 | > 30 | 0.26 | – | –
14 | O=c1[nH]c2c(n3ccnc13)Cc1c(Br)cccc1-2 | > 0.03 | > 30 | > 30 | > 30 | 1.77 | – | –
15 | CN(C)CCCn1c2c(n3ccnc3c1=O)Cc1c(-c3ccccn3)cccc1-2 | 0.857 | > 30 | > 30 | > 30 | – | – | –
16 | COc1cccc(-c2cccc3c2Cc2c-3n(CCCN(C)C)c(=O)c3nccn23)c1 | 0.084 | > 30 | > 30 | 15 | – | – | –
17 | C[S@](=N)(=O)CC[C@H](N)C(=O)O | – | – | – | – | – | – | 10 (≈ 1.8 µg/mL)
18 | CC(C)Cn1c2c(n3ccnc3c1=O)Cc1c(-c3cccnc3)cccc1-2 | 0.066 | > 30 | > 30 | > 30 | – | – | –
